This note sets out measurements from ChEMBL document CHEMBL1201862, “PubChem BioAssay data set” (2004).

Test systems include PC-3; OVCAR-3; HL-60; TK-10; HCT-116; MDA-MB-231; NCI-H23; SK-MEL-2; SK-MEL-5; K562; UACC-62; T47D; A549; KM12; HCC 2998; RXF 393; COLO 205; NCI-H226; SF-539; NCI/ADR-RES.
Common to all, as to assay: NCI tumour cell line growth inhibition, 48 h

Each structure is given as a SMILES string.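 Method: 48-hour compound exposure of cells in 96-well plates, five concentrations, linear interpolation of endpoints. GI50 = concentration required for 50% inhibition of growth.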 Activity calls are given as the source filed them. No stated cut-off is given here; in the data, active = GI50 up to about 1.1 µM and inactive = higher.

Regarding `Cc1nnc2n1N=C(c1ccccc1)/C(=C/c1ccc(-c3ccc(Cl)cc3)o1)S2`, the GI50 is 11.9 µM (inactive) with PC-3; 10.5 µM (inactive) with OVCAR-3; 4.36 µM (inactive) with HL-60; 13.4 µM (inactive) in the test with TK-10; 12.2 µM (inactive) in the test on HCT-116; 15.1 µM (inactive) in the test on MDA-MB-231. Moreover, the GI50 with NCI-H23 is 15.9 µM (inactive); with SK-MEL-2, 13.2 µM (inactive); with SK-MEL-5 it was 13.6 µM (inactive); in the test on K562 it was 7.85 µM (inactive); with UACC-62 it was 12.4 µM (inactive); in the test on T47D, 5.22 µM (inactive). The GI50 with A549 is 18 µM (inactive); in the test on KM12 it was 13.4 µM (inactive); in the test with HCC 2998, 7.19 µM (inactive); in the test on RXF 393, 10.8 µM (inactive); in the test on COLO 205, 25.2 µM (inactive); in the test with NCI-H226, 14.3 µM (inactive).

`CCCn1c(=O)c2nn3c(=O)n(CCC)c(=O)c3nn2c1=O`: the GI50 in the test with PC-3, in the test on SF-539, in the test on OVCAR-3, with HL-60, in the test with TK-10 and with HCT-116 was > 100 µM (inactive) in each case. The GI50 with NCI-H23, in the test with SK-MEL-2, with SK-MEL-5, with K562, in the test on UACC-62 and with T47D was > 100 µM (inactive) each time. Besides, the GI50 in the test on A549, in the test on KM12, in the test on HCC 2998, in the test on RXF 393, in the test on NCI/ADR-RES and in the test with COLO 205 was > 100 µM (inactive) in each case. Further, in the test with NCI-H226, the GI50 was > 100 µM (inactive).

With `CCN1C(=O)C(=C/C=C/C=C2/N(C)c3ccccc3C2(C)C)C(=O)N(CC)C1=S`, the GI50 is 78.3 µM (inactive) in the test with SF-539; 36.4 µM (inactive) with OVCAR-3; > 100 µM (inactive) with HL-60; > 100 µM (inactive) in the test on TK-10; > 100 µM (inactive) in the test on HCT-116; > 100 µM (inactive) in the test on MDA-MB-231. Moreover, the GI50 in the test with NCI-H23 is > 100 µM (inactive); in the test with SK-MEL-2, > 100 µM (inactive); in the test on SK-MEL-5, > 10 µM (inactive); in the test with K562 it was 58.6 µM (inactive); in the test with UACC-62, > 100 µM (inactive); with T47D it was 82.4 µM (inactive). Further, the GI50 with A549 was > 100 µM (inactive); in the test with KM12 it was > 100 µM (inactive); in the test with RXF 393, 39.6 µM (inactive); with NCI/ADR-RES, > 100 µM (inactive); in the test on COLO 205, > 100 µM (inactive); in the test on NCI-H226, > 100 µM (inactive).

For `Cc1ccc(S(=O)(=O)N2CCCSCCSCCCN(S(=O)(=O)c3ccc(C)cc3)CC2)cc1`, the GI50 with SF-539, in the test with OVCAR-3, in the test on TK-10, in the test with HCT-116, in the test on MDA-MB-231 and in the test on NCI-H23 was > 100 µM (inactive) in each case. The GI50 with SK-MEL-2 is > 100 µM (inactive); in the test on SK-MEL-5, > 100 µM (inactive); in the test on UACC-62 it was > 100 µM (inactive); with T47D, 57.8 µM (inactive); with A549 it was > 100 µM (inactive); in the test with KM12, > 100 µM (inactive). Further, the GI50 in the test with HCC 2998, in the test on RXF 393, in the test on NCI/ADR-RES, in the test with COLO 205 and with NCI-H226 was > 100 µM (inactive) each time.

For `C/C(=N/NC(=S)N(C)CCc1ccccn1)c1cnccn1`, the GI50 was < 0.01 µM (active) in the test on PC-3; 0.118 µM (active) with SF-539; < 0.01 µM (active) with OVCAR-3; < 0.01 µM (active) with HL-60; < 0.01 µM (active) with TK-10; < 0.01 µM (active) in the test on HCT-116. Further, the GI50 in the test with MDA-MB-231 was < 0.01 µM (active); in the test with NCI-H23, < 0.01 µM (active); in the test on SK-MEL-2, 4.78 µM (inactive); with SK-MEL-5 it was 0.0256 µM (active); in the test on K562, < 0.01 µM (active); in the test on UACC-62 it was 0.0986 µM (active). Also, the GI50 is 0.078 µM (active) in the test with A549; 0.0406 µM (active) with KM12; 1.4 µM (inactive) in the test with HCC 2998; 0.465 µM (active) with RXF 393; < 0.01 µM (active) with NCI/ADR-RES; < 0.01 µM (active) in the test on COLO 205. Also, the GI50 with NCI-H226 is < 0.01 µM (active).

Take `COc1cc(COC(=O)N[C@H](C(=O)O)C(C)(C)C)c([N+](=O)[O-])cc1OC`: the GI50 in the test on PC-3 is > 100 µM (inactive); in the test with SF-539, > 100 µM (inactive); in the test with OVCAR-3, > 100 µM (inactive); with HL-60 it was > 10 µM (inactive); in the test with TK-10, > 100 µM (inactive); in the test with HCT-116, > 100 µM (inactive). Moreover, the GI50 in the test on NCI-H23, in the test on SK-MEL-5, in the test on K562, with UACC-62, in the test with T47D and in the test with A549 was > 100 µM (inactive) in each case. For the same molecule, the GI50 in the test with KM12, with HCC 2998, with RXF 393, in the test with NCI/ADR-RES, in the test on COLO 205 and in the test on NCI-H226 was > 100 µM (inactive) in each case.

For `O=C1CCC2SC1CCC2=O`, the GI50 in the test with PC-3, in the test with SF-539, with OVCAR-3, with HL-60, with TK-10 and in the test on HCT-116 was > 100 µM (inactive) each time. For the same molecule, the GI50 in the test with MDA-MB-231, with NCI-H23, in the test with SK-MEL-2, with SK-MEL-5, in the test on K562 and in the test with A549 was > 100 µM (inactive) in each case. Also, the GI50 with KM12, in the test on HCC 2998, in the test with RXF 393, with NCI/ADR-RES, in the test on COLO 205 and with NCI-H226 was > 100 µM (inactive) each time.

As to `CCN(CC)CCN(/C(=N/c1ccccc1)N1CCCCC1)c1ccccc1`, the GI50 in the test on PC-3 was 2.72 µM (inactive); in the test on SF-539 it was 18.7 µM (inactive); with OVCAR-3 it was 2.88 µM (inactive); with HL-60, 1.63 µM (inactive); in the test with TK-10, 13.2 µM (inactive); in the test with HCT-116, 0.498 µM (active). The GI50 in the test with MDA-MB-231 is 3.89 µM (inactive); with NCI-H23 it was 4.38 µM (inactive); with SK-MEL-2, 14.5 µM (inactive); with SK-MEL-5, 5.08 µM (inactive); in the test with K562 it was 2.18 µM (inactive); with UACC-62, 6.12 µM (inactive). For the same molecule, the GI50 with T47D is 2.31 µM (inactive); with A549, 14.8 µM (inactive); in the test with KM12 it was 5.2 µM (inactive); in the test with HCC 2998, 6 µM (inactive); in the test on RXF 393 it was 17.7 µM (inactive); with COLO 205, 2.3 µM (inactive). For the same molecule, the GI50 in the test on NCI-H226 is 9.23 µM (inactive).

On to `COc1ccc2nc3n(c2c1)C(c1c(F)cccc1Cl)SC3` (centres undefined), for which the GI50 is > 100 µM (inactive) with PC-3; > 100 µM (inactive) with OVCAR-3; 9.31 µM (inactive) in the test on HL-60; > 100 µM (inactive) in the test with TK-10; > 100 µM (inactive) in the test on HCT-116; > 100 µM (inactive) in the test with NCI-H23. Moreover, the GI50 in the test on SK-MEL-2, in the test with SK-MEL-5, in the test on K562, in the test on UACC-62, in the test on T47D and in the test with A549 was > 100 µM (inactive) each time. The GI50 in the test with KM12 was > 100 µM (inactive); with HCC 2998, > 100 µM (inactive); with RXF 393, > 100 µM (inactive); with NCI/ADR-RES it was 23.3 µM (inactive); in the test on COLO 205 it was > 100 µM (inactive).

Regarding `Cc1ccc(S(=O)(=O)N/N=C2/C(=O)Nc3c(Cl)cc(Cl)cc32)cc1`, the GI50 is 78.3 µM (inactive) in the test on PC-3; 66.1 µM (inactive) in the test with SF-539; 60.3 µM (inactive) in the test with OVCAR-3; 36.9 µM (inactive) in the test with HL-60; 79.1 µM (inactive) in the test on TK-10; 44.3 µM (inactive) in the test with HCT-116. The GI50 in the test with MDA-MB-231 is > 100 µM (inactive); in the test with NCI-H23 it was 63.1 µM (inactive); in the test on SK-MEL-2, > 100 µM (inactive); with SK-MEL-5 it was 59.6 µM (inactive); in the test with K562, 72.1 µM (inactive); with UACC-62, 62.5 µM (inactive). Besides, the GI50 was 67.5 µM (inactive) in the test with A549; > 100 µM (inactive) with KM12; 75.9 µM (inactive) with HCC 2998; 43.3 µM (inactive) with RXF 393; 40 µM (inactive) with NCI/ADR-RES; 68.7 µM (inactive) in the test with COLO 205. Also, in the test with NCI-H226, the GI50 was > 100 µM (inactive).

`COc1ccc(OC)c(NC(=O)c2c(Cl)c(Cl)c(Cl)c(Cl)c2-c2nc3ccccc3[nH]2)c1`: the GI50 was > 100 µM (inactive) in the test with PC-3; > 100 µM (inactive) with SF-539; > 100 µM (inactive) in the test on OVCAR-3; 53.7 µM (inactive) in the test with HL-60; > 100 µM (inactive) with HCT-116; > 100 µM (inactive) with NCI-H23. Moreover, the GI50 in the test on SK-MEL-5, with K562, in the test on UACC-62, in the test with T47D, with A549 and with KM12 was > 100 µM (inactive) in each case. Besides, the GI50 in the test on HCC 2998, in the test on RXF 393, in the test on NCI/ADR-RES, with COLO 205 and in the test with NCI-H226 was > 100 µM (inactive) each time.
